According to article PMC7338124, “Characterization of neuraminidase inhibitor-resistant influenza virus isolates from immunocompromised patients in the Republic of Korea” (Virology Journal, 2020):

Legend:
[1] = test system: 2018–2019 isolates A(H1N1)pdm09 neuraminidase, Wild; assay type: biochemical, influenza A(H1N1)pdm09 virus
[2] = test system: 2018–2019 isolates A(H3N2) neuraminidase, Wild; assay type: biochemical, influenza A(H3N2) virus
[3] = test system: 2018–2019 isolates B neuraminidase, Wild; assay type: biochemical, influenza B virus
[4] = test system: A/Korea/S0003/2019 A(H1N1)pdm09 neuraminidase, Variant (H275Y); assay type: biochemical, influenza A(H1N1)pdm09 virus
[5] = test system: A/Korea/S0002/2019 A(H1N1)pdm09 neuraminidase, Variant (H275Y); assay type: biochemical, influenza A(H1N1)pdm09 virus

| SMILES | NAI resistance (IC50 fold change) [1] | NAI resistance (IC50 fold change) [2] | NAI resistance (IC50 fold change) [3] | NAI resistance (IC50 fold change) [4] | Susceptibility to NAI (in words) [4] | NAI resistance (IC50 fold change) [5] | Susceptibility to NAI (in words) [5] |
| --- | --- | --- | --- | --- | --- | --- | --- |
| CCOC(=O)C1=C[C@@H](OC(CC)CC)[C@H](NC(C)=O)[C@@H](N)C1 [Oseltamivir] | 0.1–1.2 fold | 0.1–0.2 fold |  |  |  |  |  |
| CCC(CC)[C@H](NC(C)=O)[C@@H]1[C@H](O)[C@@H](C(=O)O)C[C@H]1N=C(N)N [Peramivir] | 0.1 fold | 0.2–0.3 fold | 0.3–0.4 fold |  |  |  |  |
| CC(=O)N[C@H]1[C@H]([C@H](O)[C@H](O)CO)OC(C(=O)O)=C[C@@H]1N=C(N)N [Zanamivir] | 0.3–0.7 fold | 0.4–0.8 fold | 0.7–1.6 fold | NI 2.56 fold | normally susceptible | NI 0.44 fold | normally susceptible |
